In US10945932B2, “Prebiotic oral care compositions containing carboxylic acids” (COLGATE-PALMOLIVE COMPANY, priority 2013, dated 2021):
Where two headings read alike, the source gives them in different places.

What was measured:
Fusobacterium nucleatum [1] = assay: Biofilm growth assay in BHI, crystal violet; assay type: cell-based; conditions: F nucleatum
Procedure: (§1) Late exponential growth phase liquid cultures were prepared by transferring the respective bacterium from blood agar plates to BHI and overnight incubation at 37° C. in an anaerobic atmosphere for A. viscosus, V. parvula, F. nucleatum, P. gingivalis, P. intermedia, T. forsythia, A. naeslundii, and C. sputigena, and in a 5% CO2 environment for S. salivarius, S. sanguinis, S. mitis, A. actinomycetemcomitans, S. mutans, and S. gordonii. […] Additionally, for each bacterium tested, a background control, to correct for background staining, was added. This background control contained the bacterium tested and 0.03 weight % chlorhexidine, as an antiseptic. Plates were incubated as previously described. After 48 hrs the supernatant was removed from the wells of the plates. The wells were washed twice with 1×100 μL/PBS (phosphate buffered saline), fixed for 20 minutes with 96% vol. ethanol (96% vol. solution in water) and the biofilm retained at the bottom of the wells was stained with 1 weight % crystal violet (1 weight % solution in water). […] Quantification of the stained biofilm was performed by measuring the absorbance at 630 nm using a Multiskan Ascent microplate reader (Thermo Scientific).

Actinomyces naeslundii = assay: Biofilm growth assay in BHI, crystal violet; assay type: cell-based; conditions: A naeslundii
Procedure: as §1

Prevotella intermedia [2] = assay: Biofilm growth assay in BHI, crystal violet; assay type: cell-based; conditions: P intermedia
Procedure: as §1

Actinomyces viscosus = assay: Biofilm growth assay in BHI, crystal violet; assay type: cell-based; conditions: A viscosus
Procedure: as §1

Porphyromonas gingivalis = assay: Biofilm growth assay in BHI, crystal violet; assay type: cell-based; conditions: P gingivalis
Procedure: as §1

Streptococcus mitis = assay: Biofilm growth assay in BHI, crystal violet; assay type: cell-based; conditions: S mitis
Procedure: as §1

Fusobacterium nucleatum [3] = conditions: F nucleatum, BHI
Procedure: (§2) Late exponential growth phase liquid cultures were prepared by transferring the respective bacterium from blood agar plates to BHI and overnight incubation at 37° C. in an anaerobic atmosphere for A. viscosus, V. parvula, F. nucleatum, P. gingivalis, P. intermedia, T forsythia, A. naeslundii, and C. sputigena, and in a 5% CO2 environment for S. salivarius, S. sanguinis, S. mitis, A. actinomycetemcomitans, S. mutans, S. sobrinus and S. gordonii. Overnight cultures were transferred to BHI and adjusted to a concentration of 1×10^7 CFU/ml (colony forming units per ml) by measuring the optical density at 600 nm (OD600) (BioRad SmartSpec 3000). For each strain, 200 μl of the bacterial suspension was added to a 96-well plate containing 20 μl of the respective carboxylic acids. Final concentrations of the carboxylic acids were set to 5, 10, 20 and 25 μmol/ml. […] Plates were incubated as previously described.
(§3) For each combination of bacterium/carboxylic acid, and for each of their respective controls (i.e. the particular bacterium in the nutritionally rich medium with no carboxylic acid), the optical density was measured at 630 nm (OD630) at 0 h, 24 h and 48 h (Thermo Scientific Multiskan Ascent). Additionally, the OD630 for combinations of bacterium/carboxylic acid grown in a 5% CO2 environment were also measured every hour between 0 h and 9 h.
(§4) The experiment was carried out on three different days (thus providing 3 biological replicas) and on each day the experiment was carried out in quadruple (thus providing 4 technical replicas) for each combination of bacterium with carboxylic acid and for each control. For each day and for each combination, the average (mean) of the values obtained (as detailed above) for the four technical replicas was calculated to provide a single value for each combination on each day.

Prevotella intermedia [4] = conditions: P intermedia, BHI
Procedure: as §2, §3, §4

Streptococcus gordonii = conditions: S gordonii, BHI
Procedure: as §2, §3, §4

[5] = test system: beneficial oral bacteria and pathogenic oral bacteria; assay: Biofilm growth, prebiotic effect over the whole panel; assay type: cell-based; conditions: 25 μmol/ml; 48 hours; threshold value of 1.6
Procedure: as §1

Streptococcus mutans = conditions: S mutans, BHI
Procedure: as §2, §3, §4

Streptococcus salivarius = conditions: S salivarius, BHI
Procedure: as §2, §3, §4

O=C(O)CCC(=O)O [Succinic acid, succinic acid]
biofilm growth, OD at 630 nm (crystal violet) at 48 hrs divided by OD of control (control = 1) (Fusobacterium nucleatum [1]; 20 μmol/ml): 0.5404
biofilm growth, OD at 630 nm (crystal violet) at 48 hrs divided by OD of control (control = 1) (Fusobacterium nucleatum [1]; 25 μmol/ml): 0.1087
biofilm growth, OD at 630 nm (crystal violet) at 48 hrs divided by OD of control (control = 1) (Actinomyces naeslundii; 5 μmol/ml): 0.7746
biofilm growth, OD at 630 nm (crystal violet) at 48 hrs divided by OD of control (control = 1) (Actinomyces naeslundii; 10 μmol/ml): 0.2490
biofilm growth, OD at 630 nm (crystal violet) at 48 hrs divided by OD of control (control = 1) (Actinomyces naeslundii; 20 μmol/ml): 0.0240
biofilm growth, OD at 630 nm (crystal violet) at 48 hrs divided by OD of control (control = 1) (Actinomyces naeslundii; 25 μmol/ml): 0.0182
biofilm growth, OD at 630 nm (crystal violet) at 48 hrs divided by OD of control (control = 1) (Prevotella intermedia [2]; 5 μmol/ml): 0.8344
biofilm growth, OD at 630 nm (crystal violet) at 48 hrs divided by OD of control (control = 1) (Prevotella intermedia [2]; 10 μmol/ml): 0.7023
biofilm growth, OD at 630 nm (crystal violet) at 48 hrs divided by OD of control (control = 1) (Prevotella intermedia [2]; 20 μmol/ml): 0.0589
biofilm growth, OD at 630 nm (crystal violet) at 48 hrs divided by OD of control (control = 1) (Prevotella intermedia [2]; 25 μmol/ml): 0.1442
biofilm growth, OD at 630 nm (crystal violet) at 48 hrs divided by OD of control (control = 1) (Actinomyces viscosus; 5 μmol/ml): 0.3969
biofilm growth, OD at 630 nm (crystal violet) at 48 hrs divided by OD of control (control = 1) (Actinomyces viscosus; 10 μmol/ml): 0.3190
biofilm growth, OD at 630 nm (crystal violet) at 48 hrs divided by OD of control (control = 1) (Actinomyces viscosus; 20 μmol/ml): 0.0498
biofilm growth, OD at 630 nm (crystal violet) at 48 hrs divided by OD of control (control = 1) (Actinomyces viscosus; 25 μmol/ml): 0.0622
biofilm growth, OD at 630 nm (crystal violet) at 48 hrs divided by OD of control (control = 1) (Porphyromonas gingivalis; 5 μmol/ml): 1.0520
biofilm growth, OD at 630 nm (crystal violet) at 48 hrs divided by OD of control (control = 1) (Porphyromonas gingivalis; 10 μmol/ml): 1.0031
biofilm growth, OD at 630 nm (crystal violet) at 48 hrs divided by OD of control (control = 1) (Porphyromonas gingivalis; 20 μmol/ml): 0.1065
biofilm growth, OD at 630 nm (crystal violet) at 48 hrs divided by OD of control (control = 1) (Porphyromonas gingivalis; 25 μmol/ml): 0.1691
biofilm growth, OD at 630 nm (crystal violet) at 48 hrs divided by OD of control (control = 1) (Streptococcus mitis; 5 μmol/ml): 0.1603
biofilm growth, OD at 630 nm (crystal violet) at 48 hrs divided by OD of control (control = 1) (Streptococcus mitis; 10 μmol/ml): 0.1188
biofilm growth, OD at 630 nm (crystal violet) at 48 hrs divided by OD of control (control = 1) (Streptococcus mitis; 20 μmol/ml): 0.0851
biofilm growth, OD at 630 nm (crystal violet) at 48 hrs divided by OD of control (control = 1) (Streptococcus mitis; 25 μmol/ml): 0.1085
extent of growth, maximal OD630 over 48 hr divided by maximal OD of control (control = 1) (Fusobacterium nucleatum [3]; 5 μmol/ml): 0.9913
extent of growth, maximal OD630 over 48 hr divided by maximal OD of control (control = 1) (Fusobacterium nucleatum [3]; 10 μmol/ml): 1.0196
extent of growth, maximal OD630 over 48 hr divided by maximal OD of control (control = 1) (Fusobacterium nucleatum [3]; 20 μmol/ml): 0.2006
extent of growth, maximal OD630 over 48 hr divided by maximal OD of control (control = 1) (Fusobacterium nucleatum [3]; 25 μmol/ml): 0.1511
extent of growth, maximal OD630 over 48 hr divided by maximal OD of control (control = 1) (Prevotella intermedia [4]; 5 μmol/ml): 0.8288
extent of growth, maximal OD630 over 48 hr divided by maximal OD of control (control = 1) (Prevotella intermedia [4]; 10 μmol/ml): 0.4471
extent of growth, maximal OD630 over 48 hr divided by maximal OD of control (control = 1) (Prevotella intermedia [4]; 20 μmol/ml): 0.0944
extent of growth, maximal OD630 over 48 hr divided by maximal OD of control (control = 1) (Prevotella intermedia [4]; 25 μmol/ml): 0.0921
extent of growth, maximal OD630 over 48 hr divided by maximal OD of control (control = 1) (Streptococcus gordonii; 5 μmol/ml): 0.8555
extent of growth, maximal OD630 over 48 hr divided by maximal OD of control (control = 1) (Streptococcus gordonii; 10 μmol/ml): 0.7021
extent of growth, maximal OD630 over 48 hr divided by maximal OD of control (control = 1) (Streptococcus gordonii; 20 μmol/ml): 0.2928
extent of growth, maximal OD630 over 48 hr divided by maximal OD of control (control = 1) (Streptococcus gordonii; 25 μmol/ml): 0.1860
prebiotic effect (biofilm growth) [5]: exhibited prebiotic effects
extent of growth, maximal OD630 over 48 hr divided by maximal OD of control (control = 1) (Streptococcus mutans; 5 μmol/ml): 0.8643
extent of growth, maximal OD630 over 48 hr divided by maximal OD of control (control = 1) (Streptococcus mutans; 10 μmol/ml): 0.8599
extent of growth, maximal OD630 over 48 hr divided by maximal OD of control (control = 1) (Streptococcus mutans; 20 μmol/ml): 0.8734
extent of growth, maximal OD630 over 48 hr divided by maximal OD of control (control = 1) (Streptococcus mutans; 25 μmol/ml): 0.8448
extent of growth, maximal OD630 over 48 hr divided by maximal OD of control (control = 1) (Streptococcus salivarius; 5 μmol/ml): 1.0823
extent of growth, maximal OD630 over 48 hr divided by maximal OD of control (control = 1) (Streptococcus salivarius; 10 μmol/ml): 0.8904
extent of growth, maximal OD630 over 48 hr divided by maximal OD of control (control = 1) (Streptococcus salivarius; 20 μmol/ml): 0.2795
extent of growth, maximal OD630 over 48 hr divided by maximal OD of control (control = 1) (Streptococcus salivarius; 25 μmol/ml): 0.2197
